Experimental data: PubChem BioAssay (NCI)
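Test compounds were applied to cells in 96-well plates for 48 hours at 5 doses. GI50: concentration for 50% inhibition of growth. TGI: total growth inhibition.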

Assays:
Experiment in all cases: NCI tumour cell line growth inhibition, 48 h
[1] = test system: SNB-19 CNS
[2] = test system: ACHN renal
[3] = test system: NCI-H460 lung
[4] = test system: PC-3 prostate
[5] = test system: OVCAR-8 ovarian
[6] = test system: BT-549 breast
[7] = test system: SK-MEL-2 melanoma
[8] = test system: KM12 colon

| SMILES | GI50 [1] | TGI [1] | GI50 [2] | TGI [2] | GI50 [3] | TGI [3] | GI50 [4] | TGI [4] | GI50 [5] | TGI [5] | GI50 [6] | TGI [6] | GI50 [7] | TGI [7] | GI50 [8] | TGI [8] |
| --- | --- | --- | --- | --- | --- | --- | --- | --- | --- | --- | --- | --- | --- | --- | --- | --- |
| N#CSc1ncnc2nc[nH]c12 | > 100 µM | > 100 µM | 9.1 µM | > 100 µM | 17.3 µM | > 100 µM | 28.7 µM | > 100 µM | 5.72 µM | > 100 µM | > 28.7 µM | > 100 µM | 37.6 µM | > 100 µM | 3.26 µM | > 48.5 µM |
| CCN=C1C=CC(=C(c2ccc(N(C)C)cc2)c2ccc(N(C)C)cc2)c2ccccc21 | 0.217 µM | 4.21 µM | 0.241 µM | 1.1 µM | 0.0657 µM | 0.572 µM | 0.0468 µM | 1.06 µM | 0.0816 µM | 1.7 µM | 0.0868 µM | 0.489 µM | 0.101 µM | 0.472 µM | 0.0383 µM | 0.18 µM |
| Cc1cc(N2CCCCC2)nc(N(CCNc2ccnc3cc(Cl)ccc23)Cc2ccco2)n1 | 3.26 µM | 12 µM | 2.72 µM | 8.06 µM | 1.76 µM | 3.34 µM | 1.69 µM | 3.72 µM | 1.85 µM | 3.68 µM | 1.82 µM | 3.5 µM | 2.06 µM | 4.27 µM | 2.07 µM | 4.71 µM |
| CCn1c(-c2nonc2N)nc2cncc(C(=O)N3CCNCC3)c21 | > 25 µM | > 25 µM | > 25 µM | > 25 µM | > 25 µM | > 25 µM | > 25 µM | > 25 µM | > 25 µM | > 25 µM | > 25 µM | > 25 µM | > 25 µM | > 25 µM | > 25 µM | > 25 µM |
| O=C1C(Cl)=C(N/N=c2/[nH][nH]/c(=N/NC3=C(Cl)C(=O)c4ccccc4C3=O)c3ccccc23)C(=O)c2ccccc21 | 14.6 µM | 31.1 µM | 12.7 µM | 28.2 µM | 19.7 µM | 49.5 µM | 8.64 µM | 28.7 µM | 15.4 µM | 35 µM | 13.5 µM | 26.8 µM | 18.1 µM | 35.9 µM | 5.16 µM | 20.7 µM |
| O=C(CCl)c1ccc([N+](=O)[O-])o1 | 10.6 µM | 23.4 µM | 1.68 µM | 3.26 µM | 10.3 µM | 28.1 µM | 2.15 µM | 6.34 µM | 3.33 µM | 18.8 µM | 2.24 µM | 6.85 µM | 6.81 µM | 27.4 µM | 2.02 µM | 4.6 µM |
| CC12CCC(=O)C(O1)C1C(=O)c3cc4ccccc4cc3C(=O)C12 (stereo unspecified) | 38.1 µM | > 100 µM | 15.8 µM | 31.1 µM | 14 µM | 51 µM | 16.8 µM | 43.4 µM | 22.1 µM | 54.9 µM | 23.7 µM | 58.6 µM | 46.4 µM | > 100 µM | 12.5 µM | 29.5 µM |
| C[C@]12CC[C@H]3[C@@H](CCC4=CC(=O)CC[C@@H]43)[C@@H]1CC[C@@H]2OC(=O)N(CCCl)N=O | 0.265 µM | 24.3 µM | 0.359 µM | > 37.7 µM | 0.0702 µM | 2.45 µM | 5.02 µM | > 48.1 µM | 5.91 µM | 51.9 µM | 11.2 µM | 26 µM | 3.07 µM | 28.6 µM | 2.95 µM | 19.2 µM |
| COc1ccc(C(=O)/C=C/c2ccc(Cl)cc2)cc1S(=O)(=O)Nc1c(N)nc(SC)[nH]c1=O | 2.52 µM | 8.34 µM | 3.23 µM | 12.1 µM | 2.49 µM | 6.29 µM | 2.53 µM | 6.85 µM | 3.07 µM | 9.56 µM | 1.63 µM | 3.17 µM | 12.8 µM | 27.9 µM | 2.09 µM | 4.51 µM |
| CC1(C)CCC2(C(=O)OC3OC(CO)C(O)C(O)C3O)CC[C@]3(C)C(=CCC4C5(C)CC[C@H](OC6OC(C(=O)O)C(O)C(O)C6O)C(C)(C)C5CCC43C)C2C1 (stereo partly specified) | 1.44 µM | 8.39 µM | 6.3 µM | 12.6 µM | 2.51 µM | > 50 µM | 1.26 µM | 3.47 µM | 4.28 µM | 18.1 µM | 1.7 µM | 25.8 µM | 1.85 µM | 10.7 µM | 2.08 µM | 9.47 µM |
| COc1cccc(C2=C(c3cn(C)c4ccccc34)C(=O)NC2=O)c1 | > 25 µM | > 25 µM | 7.76 µM | > 25 µM | 13.7 µM | > 25 µM | 10.2 µM | > 25 µM | 8.25 µM | > 25 µM | 11.9 µM | > 25 µM | 8.79 µM | > 25 µM | 8.45 µM | > 25 µM |
